Measured values reported in patent publication US20100317736A1, “COMPOSITION OF THE SKIN EXTERNAL APPLICATION OR THE FOOD FOR ACCELERATING PROLINE RECYCLING BY CONTAINING THEANINE” (priority 2007, published 2010).

How the values were obtained:
Human fibroblasts [1] = assay: Procollagen biosynthesis in dermal cells (ELISA); assay type: cell-based; conditions: 48 hours, FIG. 1
Description: Human fibroblasts are cultured in the concentration of 10^4 in 48 well plates. The medium of the plates was replaced with a culture medium containing either 10 μM of vitamin C or 10 μM of transforming growth factor-β (TGF-β) and a culture medium containing either 0.1, 1, 10 or 100 μM of theanine. After culturing for 48 hours, the supernatants were harvested and synthesized procollagen was quantified using the ELISA (Takara MK101) method. The data were calculated relative to 100 of control group without containing the above substances and the result was shown in FIG. 1.

Human fibroblasts [2] = assay: Cell viability (MTT); assay type: cell-based; conditions: 1, 10, 100, 1000 and 10000 μM theanine, 24 hours, FIG. 2
Description: 2×10^3 of human fibroblasts were cultured in a 96 well plate, treated with 1, 10, 100, 1000 and 10000 μM of theanine and incubated for 24 hours. 3-(4,5-dimethylazol-2-yl)-2,5-diphenyl-2H-tetraazoliumbromide (MTT) was added to the concentration of 0.5 mg/ml and further incubated for 4 hours.

prolidase = assay: Prolidase activity in dermal cells (Chinard reaction, Gly-Pro substrate); assay type: cell-based, human; conditions: 0.01, 0.1, 1, 2 or 10 mM theanine, 24 hours, versus untreated control, FIG. 3
Description: 10^5 of human fibroblasts were cultured in 6 well plates for 6 days. The medium was replaced with heat-inactivated fetal bovine serum and then incubated for an additional 24 hours. The medium was again replaced with a culture medium containing either 0.01, 0.1, 1, 2 or 10 mM of theanine. After 24 hours, the cells were harvested and subjected to the Chinard reaction. The cells were ultrasonically disrupted and centrifuged at 100,000×g for 15 minutes. The supernatant was collected and mixed with 2 mM MnCl2 in the same amount for the prolidase reaction. The mixture was pre-reacted at 37° C. for 24 hours. 94 mM glycine-proline (Gly-Pro) dipeptide as a substrate of the prolidase reaction was added thereto in the same amount of the pre-reacted mixture and reacted at 37° C. for 1 hours. Then, the reaction was ended by adding 0.45M TCA. The enzymatic activity of prolidase was determined by quantifying proline, which is isolated by prolidase, by the color development using ninhydrin reagent. The enzyme activity was shown as a value calculating the equation of amount of isolated proline over protein weight over time (Mol/min/mg) and the result is shown in FIG. 3.

Human fibroblasts [3] = assay: Total collagen biosynthesis in dermal cells (L-[3H]-proline incorporation); assay type: cell-based; conditions: 1 mM theanine, 24 hours, relative to 100 of control group, FIG. 4
Description: 5×10^4 of human fibroblasts were cultured in 24 well plates. The medium was replaced with a medium containing 164 kBq/ml L-[^3H]-proline and supplemented with theanine in a concentration either 0.01, 0.1, 1 or 10 mM. After incubation of 24 hours, the cells were harvested, disrupted and treated with collagenase to separate collagen. Then, the amount of ^3H increased by the treatment with theanine was determined using a liquid scintillation counter and compared to that of the control group which had not been treated with theanine. Without regard to the collagen type, the total collagen amount was measured and the data described in FIG. 4 are calculated relative to 100 of the control group. As a result, it was confirmed that the total collagen biosynthesis was increased by about 45% when treated with 1 mM of theanine.

[4] = system: SKH-1 female hairless mice; assay: Collagen biosynthesis in hairless mice, closed patch test, western blotting; assay type: in vivo; conditions: cream of Example 1 (theanine 1) on back skin, closed patch test 2 weeks, versus Comparative Example 1, FIG. 5
From the text: In order to examine the effect of improving skin wrinkle of theanine, SKH-1 female hairless mice, about 7 weeks old, were subjected to a closed patch test for 2 weeks. Each cream of Example 1 and Comparative Example 1 was applied on the back skin of the hairless mouse and after the closed patch test, the skin was biopsed. Proteins were separated from the biopsed skin and assessed for collagen by western blotting.

[5] = system: female hairless mice (SKH, HR-1); assay: Inhibition of photoaging in hairless mouse, oral administration, replica / SkinVisiometer; assay type: in vivo; conditions: 500 mg theanine per kg oral, 5 weeks, UV total 600 mJ/cm^2, versus Comparative Example 3, FIG. 7
From the text: In order to examine the effect of orally administered theanine on photoaging, hairless mice were used as animal models for this experiment. As described in Table 2, 6 to 7 week old female hairless mice (SKH, HR-1) were divided into 3 groups of Comparative Example 2 (normal group), Comparative Example 3 (UV control group) and Example 2 (UV/theanine treatment group), each group having 8 mice and were raised for the experiment period.
The mice of Comparative Example 2 and Comparative Example 3 were orally administered with 0.5 ml of saline and the mice of Example 2 were administered with 500 mg of theanine, based on the solid faction, per kg of body weight dissolved in 0.5 ml of saline using a syringe for liquid injection. The administration was continued for total 5 weeks and performed at the predetermined time for 5 days per week. From 2 weeks through 5 weeks after the administration had started, the groups of Comparative Example 3 and Example 2 were irradiated by UV under conditions similar to solar light three times per week. Here, the total UV irradiation for the experiment period was set to 600 mJ/cm^2. In order to objectively judge the effect of improving wrinkle, a replica was taken from the back of each hairless mouse prior to an autopsy. The skin surface was imaged using SkinVisiometer to compare and rates the degree of the skin wrinkles.

type 1 collagen = assay: Immunohistochemistry of type 1 collagen in skin tissue; assay type: in vivo, mice; conditions: 500 mg theanine per kg oral, 5 weeks, UV, versus Comparative Example 3, FIG. 8
Description: This example was performed using the hairless mice of Example 2 and Comparative Example 2 to 3, which had been used in Experiment Example 6 and histopathological observation was performed by immunohistochemistry. The skin on the back of the hairless mice was taken, fixed in 10% neutral formalin and subjected to immunohistochemistry using monoclonal IgG1 antibody to examine the expression of type 1 collagen in the skin tissue.

[6] = system: female hairless mice (SKH, HR-1); assay: H&E staining, thickness of the epidermal layer; assay type: in vivo; conditions: for Thickness of epidermal layer: 500 mg theanine per kg oral, 5 weeks, UV
Description: In addition, the H&E (heamatoxylin & eosin) staining assay was performed for observation of general tissue condition and measurement of thickness of the epidermal layer. The thickness of the epidermal layer was measured at 10 different spots randomly selected per tissue by observing the H&E stained slide under the microscope with 100× magnification and the average value was shown in Table 3.

`CCNC(=O)CC[C@H](N)C(=O)O` [theanine] was tested, and the procollagen production (Human fibroblasts [1]; 0.1, 1, 10 or 100 μM theanine, relative to 100 of control group) was “increased collagen production of fibroblast concentration-dependently”, the “procollagen production compared with positive controls” value (Human fibroblasts [1]; versus 10 μM vitamin C or 10 μM TGF-β) was “higher procollagen production than the positive control groups” and the “cell viability / toxicity (MTT)” value (Human fibroblasts [2]) was “not toxic at all”. The “prolidase activity (amount of isolated proline)” value (prolidase) was “concentration-dependently increased”, the “increase of total collagen biosynthesis” value (Human fibroblasts [3]) was “about 45%” and the “collagen biosynthesis in skin (western blotting)” value [4] was “increased the collagen biosynthesis in the hairless mice”. The “density and depth of the wrinkles on the skin surface” value [5] was “alleviated as compared to those of Comparative Example 3”, the “type 1 collagen staining in skin tissue” value (type 1 collagen) was “more collagen was stained in the epidermal and dermal junction” and the “Thickness of epidermal layer” value [6] was 77.4%. For the same compound, the Thickness of epidermal layer ([6]; average of 10 spots per tissue, the values are: epidermal thickness) was 7.56 ± 0.75 µm and the “decrease in the thickness of the epidermal layer” value ([6]; compared to the UV control group (Comparative Example 3)) was “about 23%”.
